Values quoted from earlier work in patent publication US20170105937A1, “OLAPARIB CO-PRECIPITATE AND PREPARATION METHOD THEREOF” (CADILA HEALTHCARE LIMITED, priority 2015, published 2017).

Settings: poor solubility and moderate permeability

Biopharmaceutics Classification System (BCS) class: class 4
Compound: O=C(c1cc(Cc2n[nH]c(=O)c3ccccc23)ccc1F)N1CCN(C(=O)C2CC2)CC1 [Olaparib, 4-[3-(4-cyclopropanecarbonyl-piperazine-1-carbonyl)-4-fluoro-benzyl]-2H-phthalazin-1-one]
